From patent US20230048888A1, “USE OF TRIAZOLOTRIAZINE DERIVATIVE IN TREATMENT OF DISEASES” (ZHEJIANG VIMGREEN PHARMACEUTICALS, LTD., priority 2019, published 2023)

Columns and labels:
[1] = test system: reserpine-induced dyskinesia; assay: Mouse reserpine-induced dyskinesia model (Laboras spontaneous activity); type: in vivo, CD1 mice
Source text: Reserpine is an indole alkaloid drug, which can inhibit the reuptake of noradrenergic neuron terminals to lead to slowed movement or incompetence, thereby inducing clinical symptoms similar to those of the Parkinson's disease. Its mechanism is as follows: the reserpine can block the transport of irreversible monoamines such as DA, 5-hydroxytryptamine (5-HT) and norepinephrine (NA) in vesicles, such that the monoamines are degraded in cells to consume central and peripheral monoamines, and rapidly reduce the level of monoamines, resulting in dyskinesias and other Parkinson's disease-like symptoms. An A2A receptor antagonist was administered to evaluate if the compound under test can ameliorate the dyskinesia of the mice. The evaluation indicators include walking distance, walking time, number of standings and standing time. […] The total number of actually used animals was 90. The animals were purchased from Charles River Laboratories in Beijing (Animal Certificate Number: 1100112011009984) and raised in the animal house of ChemPartner in Shanghai (Experimental Animal License: SYXK (Shanghai) 2017-0018). The animal house has an SPF environment. On the first day of the test, a single subcutaneous injection of 0.1% acetic acid or 0.6 mg/kg reserpine was performed based on the pre-set grouping and time points. After the injection, the animals were put back to rearing cages and pushed back to the original rearing room. The activity test was carried out on the second day of the test, and before the test, the Laboras system needed to be calibrated in advance to make it in a normal working state. […] The mice were put into an independent Laboras test box 50 minutes after the administration, and the Laboras behavior recording system was started up after 10 minutes of adaptation. The current moment is the 1st hour after the last administration for the animals, and the animals were recorded continuously for 60 minutes. After the test was completed, the Laboras behavior system automatically analyzed the walking distance (m), walking time (sec), the number of standings and standing time (sec) of the mice at 0-30 min, 30-60 min, 0-60 min and every 10 min. All measurement data were represented as mean±standard error of mean (mean±SEM), and check analysis was performed by Prism 8.0 statistical software.

[2] = test system: haloperidol-induced stiffness; assay: Haloperidol-induced rat Parkinson's disease stiffness model (stiffness latency on metal rod); type: in vivo
Description: The animals required for the day were transferred from the rearing room to an operation room in advance, and were let to acclimate for at least 30 min before the test was initiated. […] After 30 minutes, the test animals were intraperitoneally injected with haloperidol or vehicle 2 without haloperidol, and put back to the original rearing cages. At 60 and 120 minutes after the injection of haloperidol or vehicle 2, the forelimbs of the rat were gently placed vertically on a horizontal metal rod with a length of 20.5 cm, a diameter of 1.2 cm, and a height of 8.5 cm above the workbench, then its hind limbs were gently placed on a test box, and timing started. When the rat moved or climbed down on the metal rod with forelimbs, the timing was stopped, and the duration for the two forelimbs of the rat to maintain the posture on the metal rod was recorded, i.e., being recorded as stiffness latency. If the rat's front paws were not put down, the observation was terminated after 600 sec, and the stiffness latency of this animal was recorded as 600 sec. When the rod climbing test was completed that day, 5 animals from each group were perfused and fixed, and whole brains were removed for preservation. Stiffness latency: the time for the two forelimbs of a rat to keep still on the metal rod. The longest stiffness latency was 600 sec. Stiffness rate %=(stiffness latency/600)*100% All measurement data were represented as mean±standard error of mean (mean±SEM), and check analysis was performed by Prism 8.0 statistical software.

adenosine receptor A1 = target: T1, adenosine receptor A1 (Homo sapiens, UniProt P30542); assay: cAMP experiment on Gi-coupled adenosine receptor A1 (CHO); type: cell-based; settings: cAMP accumulation, NECA EC80 + forskolin; read-out: IC50 (nM) CHO cells (ADORA1)
T1 construct: host or cells: CHO
T1 sequence (P30542 1-326): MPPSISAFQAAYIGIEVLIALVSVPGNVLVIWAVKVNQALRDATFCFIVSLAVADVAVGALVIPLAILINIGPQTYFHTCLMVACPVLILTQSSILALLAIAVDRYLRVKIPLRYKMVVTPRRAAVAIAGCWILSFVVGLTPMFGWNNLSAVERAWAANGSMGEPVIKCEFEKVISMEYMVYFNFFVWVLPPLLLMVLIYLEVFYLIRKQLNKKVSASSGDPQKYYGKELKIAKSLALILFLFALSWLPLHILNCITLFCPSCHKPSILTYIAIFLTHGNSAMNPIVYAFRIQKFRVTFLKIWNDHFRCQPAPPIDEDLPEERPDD
Description: In this experiment, a CHO cell strain stably expressing the adenosine receptor Al was taken as a study object (PerkinElmer, ES-010-C) for the experiment. […] A solution system for cell inoculation was 10 μL of cAMP experimental buffer. […] Likewise, 10 mM test compound was also subjected to 3-fold gradient dilution in 100% DMSO. 1 mM forskolin (Sigma, F3917) was prepared with 100% DMSO. The gradient-diluted reference compound and test compound and the 1 mM forskolin were added to a 384-well compound plate (Labcyte, PP-0200). 10 nL of the 1 mM forskolin per well and 10 nL of the gradient-diluted reference agonist NECA per well were transferred to a test plate containing cells by using Echo (Labcyte, 550), and the test plate was incubated for 30 minutes at 37° C. 5 μL of Eu-cAMP tracer working solution and 5 μL of ULight-anti-cAMP working solution (PerkinElmer, TRF0263) were added to the test plate per well, and the test plate was incubated for 30 minutes at 25° C. […] 1000×EC80 NECA was prepared with 100% DMSO. 10 nL of the reference inhibitor DPCPX gradient-diluted per well and 10 nL of the test compound gradient-diluted per well per well were transferred to a test plate containing the cells, and the test plate was incubated for 20 minutes at 25° C. 10 nL of 1000×EC80 NECA per well and 10 nL of 1 mM forskolin per well were transferred to the test plate The test plate was incubated for 30 minutes at 37° C. 5 μL of Eu-cAMP tracer working solution and 5 μL of ULight-anti-cAMP working solution were added to the test plate per well, and the test plate was incubated for 30 minutes at 25° C. The fluorescence signal ratio of each well in the test plate was read, and the IC50 value of the compound was calculated by using the output data of the reference inhibitor and test compound and the concentration of the compound.

[3] = 3 mg/kg intragastric, 30-60 min
[4] = 10 mg/kg intragastric, 0-30 min
[5] = 10 mg/kg intragastric, 0-60 min
[6] = 10 mg/kg intragastric, 30-60 min
[7] = 30 mg/kg intragastric, 0-30 min
[8] = 30 mg/kg intragastric, 0-60 min
[9] = 30 mg/kg intragastric, 30-60 min
[10] = 10 mg/kg intragastric, 60 min after haloperidol
[11] = 10 mg/kg intragastric, 120 min after haloperidol

`CC(=O)O.Nc1nc(NCCc2ccc(NC3COC3)cc2)nc2nc(-c3ccco3)nn12` [Acetate of Compound 22, 2-(furan-2-yl)-N5-(4-(oxetane-3-ylamino)phenethyl)-[1,2,4]triazolo[1,5-a][1,3,5]triazine-5,7-diamine acetate] showed a Number of standings ([1]; 3 mg/kg intragastric, 0-30 min) of 36.7 ± 5.9, a Walking distance ([1]; 3 mg/kg intragastric, 0-30 min) of 4.3 ± 0.7 m and a Walking time ([1]; 3 mg/kg intragastric, 0-30 min) of 77.8 ± 11.0 s. It also gave a Number of standings ([1]; 3 mg/kg intragastric, 0-60 min) of 49.6 ± 12.2, a Walking distance ([1]; 3 mg/kg intragastric, 0-60 min) of 6.9 ± 2.1 m and a Walking time ([1]; 3 mg/kg intragastric, 0-60 min) of 108.5 ± 23.0 s. It also gave a Number of standings [1, 3] of 12.9 ± 6.8, a Walking distance [1, 3] of 2.6 ± 1.6 m and a Walking time [1, 3] of 30.7 ± 13.9 s. It also gave a Number of standings [1, 4] of 75.6 ± 8, a Walking distance [1, 4] of 10.7 ± 1.0 m and a Walking time [1, 4] of 160.5 ± 10.8 s. It also gave a Number of standings [1, 5] of 116 ± 15.7, a Walking distance [1, 5] of 19.2 ± 2.9 m and a Walking time [1, 5] of 245.4 ± 29.1 s. For the same compound, the Number of standings [1, 6] was 40.3 ± 11.4, the Walking distance [1, 6] was 8.5 ± 2.3 m and the Walking time [1, 6] was 84.9 ± 22.4 s. It also gave a Number of standings [1, 7] of 98.7 ± 12.6, a Walking distance [1, 7] of 11.3 ± 1.1 m and a Walking time [1, 7] of 175.6 ± 12.4 s. It also gave a Number of standings [1, 8] of 178 ± 20.9, a Walking distance [1, 8] of 27.1 ± 2.5 m and a Walking time [1, 8] of 311.0 ± 22.3 s. It also gave a Number of standings [1, 9] of 79.4 ± 10.1, a Walking distance [1, 9] of 15.9 ± 1.9 m and a Walking time [1, 9] of 135.4 ± 12.8 s. For the same compound, the Stiffness rate ([2]; 3 mg/kg intragastric, 60 min) was 1.6 ± 0.8%, the Stiffness latency ([2]; 3 mg/kg intragastric, 60 min after haloperidol) was 9.3 ± 4.5 s and the Stiffness rate ([2]; 3 mg/kg intragastric, 120 min) was 4.1 ± 1.9%. The Stiffness latency ([2]; 3 mg/kg intragastric, 120 min after haloperidol) was 24.8 ± 11.2 s, the Stiffness rate ([2]; 10 mg/kg intragastric, 60 min) was 0.1 ± 0.06% and the Stiffness latency [2, 10] was 0.7 ± 0.4 s. The Stiffness rate ([2]; 10 mg/kg intragastric, 120 min) was 0.4 ± 0.2%, the Stiffness latency [2, 11] was 2.6 ± 1.5 s and the Stiffness rate ([2]; 30 mg/kg intragastric, 60 min) was 0.1 ± 0.05%. It also gave a Stiffness latency ([2]; 30 mg/kg intragastric, 60 min after haloperidol) of 0.6 ± 0.3 s, a Stiffness rate ([2]; 30 mg/kg intragastric, 120 min) of 0.1 ± 0.07% and a Stiffness latency ([2]; 30 mg/kg intragastric, 120 min after haloperidol) of 0.6 ± 0.4 s.

For `COCCNc1ccc(CCNc2nc(N)n3nc(-c4ccco4)nc3n2)cc1` [Compound 27, 2-(furan-2-yl)-N5-(4-((2-methoxyethyl)amino)phenethyl)-[1,2,4]triazolo[1,5-a][1,3,5]triazine-5,7-diamine], the IC50 (adenosine receptor A1) was 679 nM.

`Cn1nnc(-c2ccc(CCNc3nc(N)n4nc(-c5ccco5)nc4n3)cc2)n1` [Compound 40, N5-(4-(2-methyl-2H-tetrazol-5-yl)phenethyl)-2-(furan-2-yl)-[1,2,4]triazolo[1,5-a][1,3,5]triazine-5,7-diamine] gave an IC50 (adenosine receptor A1) of 388 nM.

`Nc1nc(NCCc2ccc(NC3COC3)cc2)nc2nc(-c3ccco3)nn12` [Compound 22, 2-(furan-2-yl)-N5-(4-(oxetan-3-ylamino)phenethyl)-[1,2,4]triazolo[1,5-a][1,3,5]triazine-5,7-diamine] showed an IC50 (adenosine receptor A1) of 928 nM.

In the case of `CCn1c(=O)c2c(nc(/C=C/c3ccc(OC)c(OC)c3)n2C)n(CC)c1=O` [Istradefylline, reference compound], the IC50 (adenosine receptor A1) is reported as 1200 nM, the Number of standings [1, 4] is reported as 94.3 ± 11.1 and the Walking distance [1, 4] is reported as 11.9 ± 1.4 m. For the same compound, the Walking time [1, 4] was 177.5 ± 16.0 s, the Number of standings [1, 5] was 165 ± 20 and the Walking distance [1, 5] was 23.7 ± 3.2 m. The Walking time [1, 5] was 298.3 ± 28.4 s, the Number of standings [1, 6] was 70.6 ± 10.6 and the Walking distance [1, 6] was 11.8 ± 2.0 m. The Walking time [1, 6] was 120.8 ± 16.0 s, the Stiffness rate ([2]; 10 mg/kg intragastric, 60 min) was 0.2 ± 0.1% and the Stiffness latency [2, 10] was 1.4 ± 0.8 s. It also gave a Stiffness rate ([2]; 10 mg/kg intragastric, 120 min) of 0.07 ± 0.05% and a Stiffness latency [2, 11] of 0.4 ± 0.3 s.
